Test results taken from EP1961762A1, “Inhibitors of protein phosphatase 1/GADD34, preparation and uses thereof” (Institut Gustave Roussy, priority 2007, dated 2008).
“Also recorded” adds a separate entry of the source.

How the values were obtained:
CT26 tumour cells = experiment: Anti-tumour vaccination with dying treated CT26 tumour cells, challenge with live tumour cells; format: in vivo, BALB/c mice; settings: for immunogenic apoptosis / immunogenic cell death (protection against tumour growth): dying CT26 cells treated with the agent injected into one flank, live tumour cells into the opposite flank 8 days later
CT26 cells = experiment: Phagocytosis of tumour cells by dendritic cells; format: cell-based, BALB/c mice; settings: within a few hours after treatment
Protocol: BM cells were flushed from the tibias and femurs of BALB/c mice with culture medium composed of RPMI 1640 medium (Invitrogen Life Technologies) supplemented with 10% heat-inactivated FBS (Invitrogen), sodium pyruvate, 50 µM 2-ME (Sigma), 10 mM HEPES (pH 7.4), and penicillin/streptomycin (Invitrogen). After one centrifugation, BM cells were resuspended in Tris-ammonium chloride for 2 min to lyse RBC. After one more centrifugation, BM cells (1 x 10^6 cells/ml) were cultured in medium supplemented with 100 ng/ml recombinant mouse FLT3 ligand (R&D systems) in 6-well plates (Costar Corning). After 7 days, the non-adherent and loosely adherent cells were harvested with Versene, washed and transferred in 12-well plates (1.5 x 10^6 cells/plate) for cocultures with tumour cells.
In 12-well plates, 25 x 10^6 adherent CT26 cells were labelled with Celltracker Green (Calbiochem) and then incubated with drugs. In some experiments viable CT26 were coated with 2µg/10^6 cells of chicken anti-CRT antibody (ABR affinity bioreagents) or an isotype control for 30 min prior to washing and feeding to dendritic cells Cs. Alternatively CT26 cells were coated with 2µg/10^6 cells of rCRT on ice for 30 min and washed twice prior to addition to dendritic cells. […] Phagocytosis was assessed by FACS analysis of double positive cells. […]

CRT and/or ERp57 = experiment: Immunofluorescence staining of unfixed human tumour cell lines; format: cell-based; settings: variety of human tumour cell lines
CRT [1] = experiment: Biotinylated surface proteins, 2D electrophoresis and mass spectroscopy; settings: short-term (4 h) treatment
ERP57 [2] = experiment: as above; settings: short-term (4 h) treatment
CRT [3] = experiment: Fluorescence detection of cell surface CRT on CT26 cells; format: cell-based, murine
Protocol: CT26 cells were cultured at 37°C under 5% CO2 in RPMI 1640 medium supplemented with 10% FCS, penicillin, streptomycin, 1 mM pyruvate and 10 mM HEPES in the presence of doxorubicin (DX; 24 h, 25 µM), mitoxantrone (Mitox; 24h, 1 µM, Sigma), idarubicin (24h, 1 µM, Aventis, France), mitomycin C (30 µM, 48 h; Sanofi-Synthelabo, France), and/or zVAD-fmk (50 µM, 24 h; Bachem), tunicamycin (24h, 65 µM), thapsigargin (24h, 30µM), brefeldin A (24h, 50 µM, Sigma), etoposide (48h, 25µM, Tava classics), MG132 (48h, 10 µM), ALLN (48h, […]), betulinic acid (24h, 10 µM), Hoechst 33343 (24h, 0,2µM), camptothecine (24h, 15 µM), lactacystin (48h, 60 µM), BAY 11-8072 (24h, 30µM), staurosporine (24h, 1.5 µM), bafilomycin A1 (48h, 300 nM), arsenic trioxide (24h, 30µM), C2-ceramide (C2-C; 24h, 60 µM,), calyculin A (48h, 30nM), or tautomycin (48h, nM, Sigma) and/or salubrinal (48h, µM, Calbiochem).
(§1) CT26 cells (on a glass slide or in 12-well plates) were first washed with FACS buffer (1× PBS, 5% fetus bovine serum, and 0.1% sodium azide) and then incubated with rabbit anti-mouse CRT antibody (1:100, Stressgen) in FACS buffer at 4 °C for 30 min. Cells reacted with anti-rabbit IgG (H+L) Alexa fluor 488-conjugates (1:500) in FACS buffer at 4 °C for 30 min. After washing three times with FACS buffer, surface CRT was detected by cytofluorometric analysis on a FACS Vantage. In some experiments, cells were fixed with 4% paraformaldehyde, counterstained with Hoechst (2µM; Sigma), followed by fluorescence microscopic assessment with a Leica IRE2 microscope equipped with a DC300F camera.

CRT [4] = experiment: Cell surface CRT on enucleated CT26 cells (cytoplasts); format: cell-based, murine
Protocol: as §1
Trypsinized CT26 cells were enucleated as described in the publication of Andreau, K. et al. Contagious apoptosis facilitated by the HIV-1 envelope. Fusion-induced cell-to-cell transmission of a lethal signal. J. Cell Sci. 117, 5643-53 (2004). Briefly, cells were treated in 2 ml of complete RPMI medium containing cytochalasin B (10µg/ml; Sigma) and DNase I (80U/ml; Sigma). […] Then the cell surface CRT was detected (see materials and methods) and the viability was determined by with propidium iodine staining (2µg/ml, Sigma) for 5 min followed by cytofluorometric analysis. […] Phagocytosis was assessed by FACS analysis of double positive cells.

MCA205, B16F10, J558 = experiment: CRT exposure on murine tumour cell lines; format: cell-based
HeLa, A549, HCT116 = experiment: CRT exposure on human tumour cell lines; format: cell-based
[5] = system: CRT, KDEL receptor and ERp57; experiment: Double immunofluorescence staining of CRT, KDEL receptor and ERp57; format: cell-based; settings: HeLa cells, 1 µM, 2h
CT26 tumours [6] = experiment: Intratumoural treatment of established CT26 tumours, nu/nu mice
Protocol: (§2) All animals were maintained in specific pathogen-free conditions and all experiments followed the FELASA guidelines. […] Tumours were evaluated weekly, using a caliper. In a series of experiments, BALB/c (wild type or nu/nu) carrying palpable CT26 tumours (implanted 14 days before for wild type or 7 days before for nu/nu mice by injection of 10^6 tumour cells) received a single intratumoural injection of 100 µM PBS containing the same concentration of anti-cancer agents and PP1/GADD34 inhibitors as those used in vitro, as well as rCRT (15 µg).

CT26 tumours [7] = experiment: Intratumoural treatment of established CT26 tumours, immunocompetent mice
Protocol: as §2

ERp57 [8] = experiment: Flow cytometric detection of surface ERp57; format: cell-based

Row | SMILES | immunogenic apoptosis / immunogenic cell death (protection against tumour growth) (CT26 tumour cells) | phagocytosis of treated tumour cells by DC (CT26 cells) | exposure of CRT and/or ERp57 on the cell surface (CRT and/or ERp57) | induction of surface CRT (factor) (CRT [1]; doxorubicin alone) | induction of surface CRT (factor) (CRT [1]; doxorubicin combined with Z-VAD-fmk) | surface exposure of ERP57 (ERP57 [2]) | CRT exposure triggered by PP1 or GADD34 depletion (CRT [3]; siRNA knock-down, then mitoxantrone 2 h) | time to CRT exposure in enucleated cells (cytoplasts) (CRT [4]) [h] | CRT exposure (MCA205, B16F10, J558) | CRT exposure (HeLa, A549, HCT116) | surface appearance of CRT, KDEL receptor and ERp57 [5] | therapeutic effect of single agent (CT26 tumours [6]; single intratumoural injection) | therapeutic effect of single agent (CT26 tumours [7]; single intratumoural injection, 14-day-old tumours) | immunogenic cell death (CT26 tumour cells; mouse, in vivo) | immunogenic potential of cells succumbing to etoposide (CT26 tumour cells; mouse, in vivo) | CRT exposure (CRT [3]) | surface exposure of ERp57 (ERp57 [8]) | therapeutic effect of single agent (CT26 tumours [6]; mouse, in vivo) | therapeutic effect of single agent (CT26 tumours [7]; mouse, in vivo) | tumour response (CT26 tumours [7]; mouse, in vivo)
1 | COc1cccc2c1C(=O)c1c(O)c3c(c(O)c1C2=O)C[C@@](O)(C(=O)CO)C[C@@H]3O[C@H]1C[C@H](N)[C@H](O)[C@H](C)O1 [doxorubicin] | elicited immunogenic cell death | acquired the property to be phagocytosed by DC quickly | Very similar results | 6 | 1.8 | specifically induced |  |  |  |  |  |  |  |  |  |  |  |  |  | 
2 | O=C1c2c(O)ccc(O)c2C(=O)c2c(NCCNCCO)ccc(NCCNCCO)c21 [mitoxantrone] | elicited immunogenic cell death | acquired the property to be phagocytosed by DC quickly |  |  |  |  | not further enhanced | ≤ 1 | induced CRT exposure | induced CRT exposure | appear together on the surface | no cure | permanent regression in some but not all cases |  |  |  |  |  |  | 
3 | CO[C@H]([C@H](O)CC(=O)[C@@H](C)[C@@H](O)CC[C@@H](C)[C@@H]1O[C@]2(CC[C@@H](C)[C@H](CC[C@H](C)C(C)=O)O2)CC[C@@H]1C)[C@H](OC(=O)C[C@@H](O)C1=C(C)C(=O)OC1=O)C(C)C [tautomycin] |  |  |  |  |  |  |  |  |  |  |  |  |  | not sufficient to induce immunogenic cell death | greatly enhanced | efficiently induced; also recorded: greatly enhanced | stimulates the surface exposure or ERp57 | no major therapeutic effect | no major therapeutic effect | stable disease or complete tumour regression
